Experimental data as given in patent US9029414B2, “Triterpenoid compounds and methods of use thereof” (Biotechnology Research Corporation, priority 2008, dated 2015).

What was measured:
[1] = biological target: DP receptor (Homo sapiens, UniProt Q13258); experiment: Radioligand competition binding assay, DP; conditions: target PGD, compound at 10 μM in duplicate, read-out: % inhibition of control specific binding
Experimental: To determine the targets of DA compounds, the compound was assessed in binding assays for the family of prostanoid receptors. Both compounds were tested at a single concentration (10 μM) in duplicate. DA001 and DA021 inhibit the ligand binding of prostaglandin E2 receptors EP1, EP2 and EP4 and moderately to prostaglandin (PGF) to its receptor (FP), but not prostaglandin I (PGI2), thromoboxane A and prostaglandin D2 to their receptors.

[2] = system: LPS-induced TNF-α in serum; experiment: Murine model of lipopolysaccharide-induced cytokine production; type: in vivo, Swiss-Webster mice
Experimental: This is a contract research performed by Washington Biotechnology Inc., Columbia, Md., protocol 1077. Swiss-Webster mice (female, Harlan Sprague-Dawley, 5-6 weeks) were weighed and dosed orally with 10 ml/kg water, prednisolone at 10 mg/kg, or DA021 at 30 mg/kg or 100 mg/kg. Thirty minutes after oral dosing, lipopolysaccharides (LPS) at 2 mL/kg was injected. Two hours after LPS injection, the mice were anesthetized and exsanguinated into serum separator micro-container tubes. The blood was processed to serum. The serum samples were assayed for tumor necrosis factor-α (TNFα) concentration by ELISA (Pierce) according to the manufacturer's protocol.
Evaluation of the efficacy and potency of orally administered DA021 to inhibit the lipopolysaccharide (LPS)-induced release of tumor necrosis factor-α (TNF-α) in mice was carried out. LPS is a widely used endotoxin, isolated from the bacteria, E. coli in inducing acute inflammation in an organism. Prednisolone is a synthetic corticosteroid drug that is commonly used in inflammatory reactions. It is a broad range immunosuppressant. Based on FIG. 29, there was a marked increase in the amount of TNF-α in serum upon LPS treatment in mice.
Two hours after LPS injection, the serum was collected from the mice. The serum samples were assayed for tumor necrosis factor-α (TNFα) concentration by ELISA (Pierce) according to the manufacturer's protocol. N=10, significance was calculated versus LPS+vehicle using the Student's T-test, *=p≦0.05, #=p≦1×10^−4.

[3] = system: lymphocyte infiltrates in spinal cord of EAE mice; experiment: Hematoxylin and eosin staining of spinal cords of EAE mice; type: in vivo; conditions: DA001-treated vs vehicle-treated EAE mice
Experimental: On day 21, animals were anesthetized intraperitoneally with 4% (w/v) chloral hydrate (BDH) in 0.9% (w/v) saline (USB). Once the anesthetics has set it, the animals were then perfused transcardially (Gilson) with 50 mL of 37° C., 0.005% (w/v) heparinized (Sigma) saline (USB), followed by 80 mL of ice-cold, 4% (w/v) paraformaldehyde (Sigma) in Dulbecco's Phosphate Buffered Saline (GIBCO). The perfused spinal cords were then further fixed in 4% (w/v) paraformaldehyde (Sigma) overnight at 4° C. After overnight incubation, the samples were prepared in an automated tissue processor for dehydration, clearing and paraffin infiltration (Leica EG1150H) followed by paraffin embedding (Leica RM2255). After overnight incubation at room temperature, the blocks were sectioned at 6 μm thickness on microtome (Leica 1250) and laid on Histobond slides (Merienfeld). The slides were incubated at 60 C oven for 24 h before being stained. On the day of staining, the slides were rehydrated in a series of EtOH solutions. The rehydrated slides were then submerged in hematoxyline solution for 20 min at room temperature. The slides were differentiated in acidic solution before being fixed in a series of EtOH solutions then eosin at 20 min in room temperature. […]

[4] = system: ischemic rats; experiment: MCAO (middle carotid artery occlusion) transient focal ischemia model; type: in vivo
Experimental: The MCAO (middle carotid artery occlusion model) was performed to investigate the protective effects of DA001 on the brain when the brain was exposed to transient focal ischemia (or lack of oxygen) such as during a stroke. Hemispheric brain swelling and infarct volume (the area of dead tissue caused by inadequate blood supply) was measured for test subjects treated with the compound 6 hours after ischemia and compared to that of the control group.
The MCAO (middle carotid artery occlusion model) was performed to investigate the protective effects of DA001 on the brain when exposed to transient focal ischemia (or lack of oxygen) such as during a stroke. Neurological scores, hemispheric brain swelling and infarct volume (the area of dead tissue caused by inadequate blood supply) was measured in test subjects treated with the compound 6 hours after ischemia and compared to that of the control group. DA001 effectively attenuated neurological deficits, reduced infarct volume (the area of dead tissue caused by inadequate blood supply), especially in brain slices number 3 to 5, and the extent of edema during ischemic conditions as shown in FIG. 2.

Sequence of DP receptor (Q13258 whole entry): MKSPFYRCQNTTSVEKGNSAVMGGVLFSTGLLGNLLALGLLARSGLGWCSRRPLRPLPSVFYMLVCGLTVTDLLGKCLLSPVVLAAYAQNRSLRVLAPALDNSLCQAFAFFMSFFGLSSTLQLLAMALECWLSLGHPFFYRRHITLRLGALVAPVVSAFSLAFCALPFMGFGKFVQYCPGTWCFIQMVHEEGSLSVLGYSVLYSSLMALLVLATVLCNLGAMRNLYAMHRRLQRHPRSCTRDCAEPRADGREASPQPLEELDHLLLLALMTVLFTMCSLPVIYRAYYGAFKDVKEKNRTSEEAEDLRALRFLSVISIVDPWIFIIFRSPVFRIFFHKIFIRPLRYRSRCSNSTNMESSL

`C=C(C)[C@@H]1CC[C@]2(/C=N/O)CC[C@]3(C)C(CCC4[C@@]5(C)CCC(=O)[C@@](C)(CO)[C@@H]5CC[C@]43C)C12` (stereo partly shown) [DA021] was tested, and the inhibition at 10 µM [1] was 0%, the “inhibition of the LPS response (serum TNF-α)” value ([2]; 30 mg/kg orally 30 min before LPS) was 73% and the “inhibition of the LPS response (serum TNF-α)” value ([2]; 100 mg/kg orally 30 min before LPS) was 77%.
`C=C(C)[C@@H]1CC[C@]2(C(=O)O)CC[C@]3(C)C(CC[C@@H]4[C@@]5(C)CC[C@H](O[C@@H]6OC[C@H](O)[C@H](O)[C@H]6O[C@@H]6O[C@@H](C)[C@H](O)[C@@H](O)[C@H]6O)[C@@](C)(CO)[C@@H]5CC[C@]43C)[C@@H]12` (stereo partly drawn) [DA001, 3-O-[α-L-rhamnopyranosyl-(1→2)-α-L-arabinopyranosyl]-3,23-dihydroxy-20(29)-lupen-28-oic acid] was tested, and the “lymphocytes surrounding axons / lymphocyte infiltration in spinal cord (H&E)” value [3] was “dramatically reduced”, the “total infarction of MCAO rats” value ([4]; 12.6 mg/kg and 25.2 mg/kg orally 6 h post-ischemia) was “significantly decreased” and the extent of edema ([4]; 42 mg/kg) was “reduced the extent of edema”. The “neurological scores of ischemic rats” value ([4]; 12.6 and 25.2 mg/kg orally 6 h post-ischemia) was “significantly improved”.
